The values that follow come from ChEMBL document CHEMBL1134570, “Synthesis of and a comparative study on the inhibition of muscle and liver glycogen phosphorylases by epimeric pairs of d-gluco- and d-xylopyranosylidene-spiro-(thio)hydantoins and N-(d-glucopyranosyl) amides” (J Med Chem, 2001).

Structures are written as SMILES. Calls of active or inactive are those of the source. The rule behind the calls is not given here.

The assay has as its system glycogen phosphorylase, muscle form (rabbit). As to the kind of experiment: Inhibitory activity against muscle Glycogen Phosphorylase b; no inhibition. The following applies: Muscle tissue.

As to `NC(=O)[C@]1(O)OC[C@@H](O)[C@H](O)C1O` (stereo partly specified), the NI result was “inactive”.
